“Also recorded” adds a separate entry of the source. Like-named read-outs stand apart in the source and are kept apart here.
Tests used:
E. coli DHB4 WT = assay: MIC of silver and ebselen on E. coli DHB4 redox phenotypes; format: cell-based, Escherichia coli; settings: 24 h; for MIC: Escherichia coli, DHB4WT, read-out: MIC of ebselen in the presence of silver
Protocol: (§1) Since Trx and GSH/Grx are major thiol-dependent systems, investigated were the effects of Ag^+ with ebselen in combination on Trx or GSH system-deficient E. coli redox mutants.
(§2) Serial dilutions of ebselen and AgNO3 were added to the individual wells. The minimum inhibitory concentration (MIC) was determined after 24 h culture at 37° C.

E. coli DHB4 oxyR^− = assay: microbe, parasite or virus in culture; format: cell-based, Escherichia coli; settings: for MIC: read-out: MIC of ebselen in the presence of silver
Protocol: as §1
One major function of GSH and Trx systems is to scavenge ROS to keep cellular redox balance and protect against oxidative stress. The inhibition of the Trx system and depletion of GSH may responsible for the elevation of ROS.
as §2

E. coli DHB4 [1] = assay: E. coli DHB4 growth in micro-well plates, OD600 nm, 16 h; format: cell-based, Escherichia coli
Protocol: The effect of silver nitrate with ebselen in combination on the growth of Gram-negative model bacteria, E. coli, was investigated in the microplates. DHB4 overnight cultures were diluted 1:1000 times in Luria-Bertani (LB) medium, and treated with ionic silver (Ag^+) as a nitrate salt (AgNO3) for 16 h.
E. coli DHB4 cells overnight cultures were diluted 1:1000 times in Luria-Bertani (LB) medium and treated with serial concentrations of AgNO3 and/or ebselen for 16 h. The cell viability was determined by measuring the absorbance at 600 nm. The culture treated with 0.8% (v/v) DMSO was used as a control.
E. coli DHB4 cells were grown until an OD600 nm of 0.4, and treated with serial dilutions of ebselen (0, 2, 4, 8 μM) for 16 h. The cell viability was determined by measuring the absorbance at 600 nm. The culture treated with 0.8% (v/v) DMSO was used as a control.

GSH = GSH amount in treated E. coli cell extracts, GR-coupled DTNB reduction; format: cell-based, Escherichia coli
E. coli Trx1 = E. coli Trx1 (Escherichia coli, UniProt P0AA25)
E. coli Trx1, sequence (P0AA25 2-109): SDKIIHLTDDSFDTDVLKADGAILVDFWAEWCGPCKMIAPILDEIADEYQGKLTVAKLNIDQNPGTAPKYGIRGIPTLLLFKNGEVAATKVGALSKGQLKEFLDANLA
Protocol: (§3) Since ebselen is a known reversible competitive inhibitor of bacterial TrxR, the effect of Ag^+ on the activity of E. coli TrxR and Trx was investigated.
(§4) Inhibition of recombinant bacterial TrxR by Silver was performed by using E. coli enzyme. The experiments were performed with 96 micro-well plates in the solution containing 50 mM Tris.HCl (pH 7.5), 200 μM NADPH, 1 mM EDTA, 1 mM DTNB, in the presence of 5 μM E. coli Trx. The absorbance at 412 nm was measured for 5 min with a VERSA micro-well plate reader and the slope of initial 2 min was used to represent TrxR activity. The Trx activity was detected by this method, coupled with the use of 100 nM E. coli TrxR instead of 5 μM E. coli Trx in the reaction mixture.

E. coli TrxR = E. coli TrxR (Escherichia coli, UniProt P0A9P4)
E. coli TrxR, sequence (P0A9P4 2-321 limits assumed): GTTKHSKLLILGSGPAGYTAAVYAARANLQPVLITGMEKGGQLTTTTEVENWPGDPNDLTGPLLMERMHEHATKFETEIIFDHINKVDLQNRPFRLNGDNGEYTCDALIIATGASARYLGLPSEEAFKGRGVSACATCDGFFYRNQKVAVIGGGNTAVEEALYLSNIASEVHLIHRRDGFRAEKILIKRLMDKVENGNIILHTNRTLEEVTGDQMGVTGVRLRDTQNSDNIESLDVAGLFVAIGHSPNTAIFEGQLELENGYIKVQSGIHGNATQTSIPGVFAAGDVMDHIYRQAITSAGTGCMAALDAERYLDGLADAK
Protocol: as §3, §4

E. coli DHB4 [2] = assay: ROS production, H2DCF-DA staining, flow cytometry; format: cell-based, Escherichia coli; settings: 5 μM Ag^+ alone or 20 μM ebselen alone
Protocol: (§5) The E. coli DHB4 cells were grown till the absorbance at OD600 nm of 0.4 in LB medium, and the bacterial cells were treated with different combinations of ebselen and AgNO3 for 10 min. To analyze the amount of ROS production in the bacteria, cells were harvested by centrifugation at 6,000 rpm for 5 min and thoroughly washed 3 times with PBS, and stained with 5 μM H2DCF-DA for 20 min. After the incubation, cells were spin down and re-suspended in PBS, and the ROS production was quantified by flow cytometry (CyAn adp, Beckman coulter).
as §5, with “silver and antibiotics in” for “different”, “combinations” for “combinations of ebselen and AgNO3”, “spun” for “spin”, “(CyAnadp,” for “(CyAn adp,”

reduced E. coli Trx1 = reduced E. coli Trx1 (Escherichia coli, UniProt P0AA25); settings: excitation 280 nm
reduced E. coli Trx1, sequence (P0AA25 whole entry): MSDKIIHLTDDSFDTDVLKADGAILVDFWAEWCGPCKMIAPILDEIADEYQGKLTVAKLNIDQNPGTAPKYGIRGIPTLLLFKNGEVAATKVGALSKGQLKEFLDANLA
Protocol: Pure recombinant 100 nM TrxR, and 5 μM Trx mixture were incubated with AgNO3 solution in the presence of 200 μM NADPH, and then their activities were detected by DTNB reduction assay. FIG. 4B is a fluorescent spectra of a complex between reduced E. coli 10 μM Trx1 with AgNO3. Reduced 10 μM E. coli Trx1 protein was incubated with a serial concentration of AgNO3 solution and the fluorescent spectra was detected with an excitation wavelength at 280 nm. Oxidized Trx1 (Trx-S2) was used as a control. […] After the treatment described in (B), Trx activity was assayed by a DTNB method in the presence of E. coli Trx1. […] Silver-inhibited E. coli Trx1 was passed through a desalting column to remove small molecules and then Trx activity was measured. E. coli Trx1 without the inhibition was used as a control.
Fluorescent Spectra of reduced E. coli Trx with Silver were recorded at 10 μM in a PerkinElmer Enspire multilabel recorder using an excitation at 280 nm.

[3] = system: KP-2: K. pneumonia subsp. pneumonia 0322#; assay: MIC of silver with antibiotics on clinical isolated MDR Gram-negative bacteria; format: cell-based, Klebsiella pneumonia; settings: antibiotic 4 μM
Protocol: (§6) There are five clinically most difficult-to-treat MDR Gram-negative pathogen species: Klebsiella pneumonia, Acinetobacter baumannii, Pseudomonas aeruginosa, Enterobacter cloacae and Escherichia coli. One strain from each species was isolated, and overnight cultures were diluted 1:1000 times in LB medium, and treated with serial concentrations of Ag^+ and antibiotics in combinations for 24 h (Table 10).
(§7) Five clinical isolated MDR Gram-negative strains were grown until an OD600 nm of 0.4, and were diluted 1:1,000 into 100 μl LB medium in 96 micro-well plates. […] The cultures treated with the same serial dilutions of 100 μl ebselen and silver nitrate were used as the positive control.

[4] = system: AB-1: Acinetobacter baumannii H#; assay: as above; format: cell-based; settings: antibiotic 4 μM
Protocol: as §6, §7

[5] = system: ECO-1: Escherichia coli 1139#; assay: as above; format: cell-based; settings: antibiotic 4 μM
Protocol: as §6, §7

[6] = system: PA-1: Pseudomonas aeruginosa 1298#; assay: as above; format: cell-based; settings: antibiotic 4 μM
Protocol: as §6, §7

ECL-2: E. cloacae 2301# = assay: as above; format: cell-based, Enterobacter cloacae; settings: antibiotic 4 μM
Protocol: as §6, §7

[7] = 5 μM Ag^+ alone or 20 μM ebselen alone, compared with control

## O=[N+]([O-])[O-].[Ag+] [silver, silver nitrate]
E. coli DHB4 WT; Ebselen 0 μM
  MIC of silver in the presence of ebselen: 40 µM
E. coli DHB4 WT; Ebselen 1 μM
  MIC of silver in the presence of ebselen: 10 µM
E. coli DHB4 WT; Ebselen 2 μM
  MIC of silver in the presence of ebselen: 5 µM
E. coli DHB4 WT; Ebselen 4 μM
  MIC of silver in the presence of ebselen: 1.25 µM
E. coli DHB4 oxyR^−; Ebselen 0 μM, oxyR^−, 24 h
  MIC of silver in the presence of ebselen: 20 µM
E. coli DHB4 oxyR^−; Ebselen 1 μM, oxyR^−, 24 h
  MIC of silver in the presence of ebselen: 5 µM
E. coli DHB4 oxyR^−; Ebselen 2 μM, oxyR^−, 24 h
  MIC of silver in the presence of ebselen: 1.25 µM
E. coli DHB4 oxyR^−; Ebselen 4 μM, oxyR^−, 24 h
  MIC of silver in the presence of ebselen: 0.625 µM
E. coli DHB4 [1]; Ag^+ alone, 16 h treatment
  minimal inhibition concentration (MIC) of Ag^+: 42 µM
E. coli DHB4 [1]; with 2 μM ebselen, 16 h treatment
  MIC of Ag^+: 4.2 µM
GSH; [7]
  GSH levels: neither 5 μM Ag^+ nor 20 μM ebselen modulated GSH levels
E. coli Trx1; Trx1 activity after desalting
  reversibility of the inhibition of Trx1: irreversible
E. coli Trx1; along with the increase of Ag^+ concentration, 10 μM Trx1
  activity of Trx: decreased
E. coli TrxR; in the presence of reduced E. coli Trx1
  inhibitory efficiency toward TrxR: decreased
E. coli TrxR; read-out: IC50 on E. coli TrxR, 100 nM NADPH-pre-incubated E. coli TrxR
  IC50: ~50 nM
E. coli DHB4 [2]
  ROS concentrations: did not change ROS concentrations
Reduced E. coli Trx1; 1-10 μM Ag^+
  tryptophan fluorescence intensity of 10 μM Trx1: increased the tryptophan fluorescence intensity
Reduced E. coli Trx1; 20-100 μM Ag^+
  fluorescent intensity of 10 μM Trx1: decreased

## O=c1c2ccccc2[se]n1-c1ccccc1 [ebselen, 2-phenyl-1,2-benzisoselenazol-3(2H)-one]
E. coli DHB4 WT; Silver 0 μM
  MIC: 80 µM
E. coli DHB4 WT; Silver 0.625 μM
  MIC: 8 µM
E. coli DHB4 WT; Silver 1.25 μM
  MIC: 4 µM
E. coli DHB4 WT; Silver 2.5 μM
  MIC: 4 µM
E. coli DHB4 WT; Silver 5 μM
  MIC: 2 µM
E. coli DHB4 WT; Silver 10 μM
  MIC: 1 µM
E. coli DHB4 WT; Silver 20 μM
  MIC: 0.5 µM
E. coli DHB4 oxyR^−; Escherichia coli, 24 h, Silver 0 μM, oxyR^−, 24 h
  MIC: 40 µM
E. coli DHB4 oxyR^−; Escherichia coli, 24 h, Silver 5 μM, oxyR^−, 24 h
  MIC: 1 µM
E. coli DHB4 oxyR^−; Escherichia coli, 24 h, Silver 10 μM, oxyR^−, 24 h
  MIC: 0.5 µM
E. coli DHB4 oxyR^−; Escherichia coli, 24 h
  MIC: 4 µM
E. coli DHB4 oxyR^−
  MIC: 2 µM
[3]
  MIC of silver in the presence of different antibiotics: 40 µM
[4]
  MIC of silver in the presence of different antibiotics: 10 µM
[5]
  MIC of silver in the presence of different antibiotics: 5 µM
[6]
  MIC of silver in the presence of different antibiotics: 20 µM
ECL-2: E. cloacae 2301#
  MIC of silver in the presence of different antibiotics: 10 µM
E. coli DHB4 [1]; ebselen alone (2, 4, 8 μM), 16 h
  effect on E. coli growth: no effects on bacterial growth; also recorded: no effect on the growth of E. coli
GSH; [7]
  GSH levels: neither 5 μM Ag^+ nor 20 μM ebselen modulated GSH levels
GSH; ebselen alone at 80 and 40 μM
  GSH levels: reduced GSH levels
E. coli DHB4 [2]
  ROS concentrations: did not change ROS concentrations

Reference: patent US10653717B2, “Antibiotic compositions” (priority 2016, dated 2020)
